Where a name gives a salt, the structure may show the parent alone.
How the values were obtained:
Mongrel dogs [1] = assay: Acute cardiac infarction model: LDA ligature and reperfusion in dogs; assay type: in vivo; conditions: dog, hydrochloride 1 mg/kg/hr intravenous drip, versus control group
Protocol: Mongrel dogs (body weight: 8 to 20 kg) under anesthesia were ventilated artificially and underwent a left thracotomy. […] A polyethylene cannula was inserted into the femoral artery, and the blood pressure and heart rate were recorded A cannula was inserted into the […] of a drug and also into the carotid artery from which a blood sample was to be taken. After stabilization period of the test preparation, LDA was ligated with a clamp. After 2 hours from the ligature, the clamp was released for reperfusion. After observation for the following 4 hours, the heart was excised. […] Then, the heart was washed and sliced at 1 cm intervals from the apex in the direction vertical to the longer axis. Each slice at the left ventricle was divided into a part which was in risk of cardiac infarction indicated by Evans' Blue stain (hereinafter referred to as risk area) and a normal area, and each area was weighed. The weight of the left ventricle (the sum of the risk area and the normal area) and that of the risk area of each slice were individually added up to obtain the weight of the whole left ventricle and the total weight of the risk area. Further, of each slice, the area of the risk area which was not stained with Evans' Blue and that of a cardiac infarction area within the risk area which remained white, i.e., which was stained neither in blue with Evans' Blue nor in red with triphenyltetrazolium chloride, were measured to obtain a ratio of cardiac infarction part to the whole left ventricle (infarction size). […] The experiment was conducted for the following groups.

Serotonin 2-Receptor [2] = target: T1, Serotonin 2-Receptor (Rattus norvegicus, UniProt P14842); assay: Binding activity to serotonin 2-receptor, 3H-Ketanserin, rat frontal cortex membrane preparation; conditions: calculated from the 50% inhibitory concentration, hydrochloride, read-out: dissociation constant for serotonin 2-receptor
T1 construct: from tissue; host or cells: intact anesthetized SD-SLC male rat (vascular response)
T1 sequence (P14842 whole entry): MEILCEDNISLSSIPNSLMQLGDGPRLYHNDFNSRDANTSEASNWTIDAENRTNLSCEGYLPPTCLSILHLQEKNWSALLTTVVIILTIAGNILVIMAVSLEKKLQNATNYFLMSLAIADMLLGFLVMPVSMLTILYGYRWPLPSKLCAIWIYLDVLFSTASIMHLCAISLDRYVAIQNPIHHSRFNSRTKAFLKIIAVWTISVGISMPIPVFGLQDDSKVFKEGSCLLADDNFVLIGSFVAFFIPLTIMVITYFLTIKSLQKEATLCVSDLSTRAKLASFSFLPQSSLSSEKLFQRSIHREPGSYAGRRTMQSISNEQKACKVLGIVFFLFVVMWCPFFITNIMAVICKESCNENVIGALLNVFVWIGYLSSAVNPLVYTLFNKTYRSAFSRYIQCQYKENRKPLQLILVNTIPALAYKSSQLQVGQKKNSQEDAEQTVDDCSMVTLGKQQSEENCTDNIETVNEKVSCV
Protocol: A male SD rat was decapitated under anesthesia, and the frontal cortex was removed to obtain a membrane preparation. ^3 H-Ketanserin and Methysergide were used as a labelled ligand and a non-specific binding reagent, respectively. These reagents and a test compound thereof were dissolved in a 5% methanol tris-buffer solution. After incubation, this solution was filtered by suction through a GF/B glass filter. Radioactivity of ^3 H-Ketanserin collected on the filter was measured with a liquid scintillation counter. A Scatchard plot was prepared from the resulting radioactivity values, and a dissociation constant of serotonin 2-receptor and a receptor density of the membrane preparation were obtained. Further, from the receptor-binding inhibition curve of the compound is obtained a 50% inhibitory concentration, and a dissociation constant indicative of the binding affinity to serotonin 2-receptor was calculated.

Mongrel dogs [3] = assay: Angina pectoris model: partial LDA occlusion with cyclic coronary flow reduction in dogs; assay type: in vivo; conditions: dog, maleate 0.1 mg/kg i.v., compared with before administration
Protocol: Mongrel dogs (body weight: 8 to 20 kg) under anesthesia with pentobarbital (30 mg/kg, i.v.) were ventilated artificially and underwent a left thoracotomy. LDA was separated from connected tissues. A silicone tube for partial occlusion was placed around the LDA, and a probe for blood flow rate measurement was fixed in the neighborhood. The blood flow rate was measured with a pulse Doppler blood flow meter. A cannula was inserted into a branch distal to the occlusion site of the left coronary artery, and the coronary blood pressure was measured. A polyethylene cannula was inserted into the femoral artery, and the systemic blood pressure and heart rate were recorded. A cannula was inserted to the femoral vein for administration of a drug.
The effect of the drug was expressed in terms of frequency of the periodic reduction of blood flow rate.

ddy male mice = assay: Toxicity in mice, repeated oral administration; assay type: in vivo, mouse; conditions: ddy male mice, 200 mg/kg p.o. once a day for consecutive 4 days; dead animals per group
Protocol: A test compound dissolved or suspended in a 1% methyl cellulose solution was orally administered to ddy male mice (4 or 5 mice per group) at a dose of 200 mg/kg once a day for consecutive 4 days. The number of dead animals per group was counted on the day next to the final administration day. As a control, 10 mλ/kg of 1% methyl cellulose solution was orally administered.

[4] = test system: Sympathetic Nerve α1 -Receptor; assay: Antagonistic activity on sympathetic nerve α1-receptor: inhibition of the phenylephrine-induced increase in blood pressure in anesthetized rats; assay type: in vivo; conditions: SD-SLC male rat, 10 mg/kg p.o.; after 180 minutes from the administration; inhibition of blood pressure increase by phenylephrine 100 μg/kg i.v.
Serotonin 2-Receptor [5] = target: T1, Serotonin 2-Receptor; assay: Antagonistic activity on serotonin 2-receptor: inhibition of the serotonin-induced increase in blood pressure in anesthetized rats; assay type: in vivo; conditions: SD-SLC male rat, 10 mg/kg p.o.; after 180 minutes from the administration; inhibition of blood pressure increase by serotonin 300 μg/kg i.v.
Protocol: A test compound dissolved in purified water was orally administered to an SD-SLC male rat at a dose of 10 mg/kg. After 30 minutes from the administration, the rat was anesthetized with urethane (1 g/kg, i.p.) and α-Chloralose (80 mg/kg, i.p.). A polyethylene cannula was inserted into the carotid artery, and the blood pressure was recorded on a polygraph by using a pressure transducer. After 60 minutes or 180 minutes from the administration of the test compound, 300 μg/kg of serotonin was intravenously injected, and an increase in blood pressure was observed. Serotonin 2 (hereinafter referred to as […]) antagonistic activity of the test compound was calculated as a percentage of inhibition of an increase in blood pressure induced by […]. The inhibitory effect of the test compound wa compared with that of vehicle solution treated group.

O=C(c1ccc(F)cc1)C1CCN(CCn2c(=O)nc3n(c2=O)CCCC3)CC1 [Example 1, 3-[2-[4-(4-Fluorobenzoyl)piperidin-1-yl]ethyl]-6,7,8,9-tetrahydro-2H-pyrido[1,2-a]-1,3,5-triazine-2,4(3H)-dione]
effect on myocardial infarction size (in words) (Mongrel dogs [1]): significantly reduced
Ki (Serotonin 2-Receptor [2]): 15 nM
effect on frequency of the cyclic coronary flow reduction (in words) (Mongrel dogs [3]): significantly reduces

O=C(c1ccc(F)cc1)C1CCN(CCn2nc3ccccn3c2=O)CC1 [Example 49, 2-[2-[4-(4-Fluorobenzoyl)piperidin-1-yl]ethyl]-1,2,4-triazolo[4,3-a]-pyridin-3(2H)-one Hydrochloride Hemihydrate]
Toxicity (Death Rate) (ddy male mice): 0/5
Antagonistic Activity α1 (%) [4]: 3%
Antagonistic Activity 5-HT2 (%) (Serotonin 2-Receptor [5]): 82%

Reference: patent publication US5232924A, “Heterocyclic compound having serotonine 2-receptor antagonistic activity” (Daiichi Pharmaceutical Co., Ltd., priority 1989, dated 1993)
